Test results as given in US9326953B2, “Method and system for systemic delivery of growth arresting, lipid-derived bioactive compounds” (priority 2003, dated 2016).

How the values were obtained:
MDA cells [1] = experiment: [3H]thymidine cell proliferation assay; type: cell-based, Human; conditions: [3H]thymidine incorporation, 10% FBS for 12 h of treatment; read-out: IC50 of C6, inhibition of MDA cell proliferation
Method: To determine the utility of conventional lipid formulations for the delivery of short-chain ceramide to MDA cells, a [^3H]thymidine proliferation assay was performed. Briefly, MDA cells were seeded at 3.5×10^4 cells/well in 24-well plates and grown overnight prior to 24 h of serum starvation. At hour 12 of serum starvation, cells were treated with liposomal or nonliposomal C6 for the remainder of serum starvation. Following serum starvation, media was then supplemented with FBS (10% final concentration) for an additional 12 h, and cellular proliferation was assayed with the addition of 0.5 mCi/ml [^3H]thymidine for the final 4 h of treatment. Cells were washed once with cold PBS and then twice with 10% trichloric acetic acid for 10 min. Cells were solubilized with 0.3 N NaOH, and [^3H]thymidine incorporation into acid-insoluble DNA was assessed with a scintillation counter.

MDA cells [2] = experiment: TUNEL staining of cleaved DNA; type: cell-based, Human
Method: An investigation to determine whether C6-dependent growth inhibition correlates with enhanced apoptosis was undertaken. To confirm that C6 delivery leads to MDA cell apoptosis, TUNEL analysis (Upstate Biotechnology, Lake Placid, N.Y.) was performed, which stains cleaved DNA, a hallmark of cellular apoptosis (FIG. 7A).

[3] = Toxicity after intravenous injection; type: in vivo; conditions: injection at 10 mg/kg

For `CCCCCCCCCCCCC/C=C/[C@@H](O)[C@H](CO)NC(=O)CCCCC` [nonliposomal C6, D-erythro-hexanoyl-sphingosine], the IC50 (MDA cells [1]) was 15 µM, the “DNA fragmentation (TUNEL) at 16 h” value (MDA cells [2]; 20 μM, 16 h of treatment) was “induced DNA fragmentation” and the “DNA fragmentation (TUNEL) at 8 h” value (MDA cells [2]; cycling, serum-fed MDA cells, 8 h) was “no DNA fragmentation”. It also gave a mice killed [3] of 50%.
